Measurements from publication PMC3929664, “A Panel of Diverse Assays to Interrogate the Interaction between Glucokinase and Glucokinase Regulatory Protein, Two Vital Proteins in Human Disease” (PLoS ONE, 2014).
Structures can show the parent of a compound that is named as a salt.

Tests used:
[1] = target: T1, GCK enzymatic reaction inhibited by GKRP (recombinant human GCK and GKRP) (Homo sapiens, UniProt P35557+Q14397); assay: Diaphorase-coupled kinetic assay (G6PDH/diaphorase dual-coupled); format: biochemical; settings: 10 nM GCK, 10 nM GKRP; for LOPAC1280 screen outcome: 1.5 µM S6P
T1 construct: made in house
T1 sequence (P35557 1-465): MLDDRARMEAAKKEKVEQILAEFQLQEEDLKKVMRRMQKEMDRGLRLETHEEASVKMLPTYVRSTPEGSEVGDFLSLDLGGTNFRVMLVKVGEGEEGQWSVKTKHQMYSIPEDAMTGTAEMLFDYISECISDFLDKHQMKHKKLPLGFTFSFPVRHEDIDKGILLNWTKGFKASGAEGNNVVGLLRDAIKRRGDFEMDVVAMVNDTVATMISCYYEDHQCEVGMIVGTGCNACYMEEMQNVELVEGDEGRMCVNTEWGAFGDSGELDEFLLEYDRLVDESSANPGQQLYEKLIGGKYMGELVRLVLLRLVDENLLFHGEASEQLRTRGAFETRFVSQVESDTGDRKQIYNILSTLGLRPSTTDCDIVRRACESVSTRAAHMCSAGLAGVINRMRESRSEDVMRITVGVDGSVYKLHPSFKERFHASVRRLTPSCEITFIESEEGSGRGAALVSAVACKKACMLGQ
T1 sequence (Q14397 1-625): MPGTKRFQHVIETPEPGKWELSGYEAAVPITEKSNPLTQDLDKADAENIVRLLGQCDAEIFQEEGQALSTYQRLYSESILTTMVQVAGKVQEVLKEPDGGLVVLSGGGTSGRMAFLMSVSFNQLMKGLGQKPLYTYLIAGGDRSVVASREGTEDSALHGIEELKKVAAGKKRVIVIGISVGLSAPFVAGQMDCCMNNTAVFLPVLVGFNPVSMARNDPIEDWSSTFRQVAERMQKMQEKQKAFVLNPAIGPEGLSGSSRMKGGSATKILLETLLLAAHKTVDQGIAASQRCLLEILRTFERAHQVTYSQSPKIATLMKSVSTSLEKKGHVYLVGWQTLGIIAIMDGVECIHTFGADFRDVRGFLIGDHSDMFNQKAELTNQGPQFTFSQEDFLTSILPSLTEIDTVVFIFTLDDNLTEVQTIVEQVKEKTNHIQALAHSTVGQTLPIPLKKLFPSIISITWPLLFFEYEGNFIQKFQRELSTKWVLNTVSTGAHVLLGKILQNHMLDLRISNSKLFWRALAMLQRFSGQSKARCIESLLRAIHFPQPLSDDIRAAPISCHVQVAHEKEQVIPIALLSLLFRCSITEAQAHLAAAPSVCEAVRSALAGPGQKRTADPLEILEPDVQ
Description: The glucose 6-phosphate dehydrogenase (G6PDH)-coupled kinetic assay described previously was adapted for high-throughput screening by dispensing 2 µl diaphorase-coupled substrate assay buffer (pH 7.1) to give final reaction conditions of 25 mM HEPES, 25 mM KCl, 2 mM MgCl2, 1.4 mM 2-mercaptoethanol, 0.025% BSA, 0.01% Tween-20, 0.15 mM NADP^+, 5 mM glucose, 0.4 mM ATP, 4 U/ml G6PDH, and 0.1 mM resazurin (all Sigma-Aldrich, except ATP which was from Promega) into black 1536-well medium binding plates (Greiner Bio-One) using a BioRAPTR. The reaction was then initiated by addition of 2 µl of diaphorase-coupled enzyme assay buffer containing indicated concentrations of GST-GCK, FLAG-GKRP, and diaphorase (Sigma-Aldrich; final concentration 0.1 mg/ml). Reaction progress was followed by quantitation of the fluorescent product resorufin generated from resazurin with excitation at 525 nm and emission at 590 nm using a ViewLux Microplate Imager. Plates were read every minute for 30 minutes. […] For the LOPAC^1280 library screen, column 1 was all components with DMSO (maximum signal) and column 3 was no GCK with DMSO (minimum signal). These two control columns were used for data normalization. The final HTS protocol is in Table S2, and the data have been deposited in PubChem (AID 743205).
(§1) S6P, F1P, and glucose were dissolved in water; GKAs were dissolved in DMSO.
The G6PDH-coupled kinetic assay system described in [24] was utilized as a basis for developing a high-throughput screening assay to detect G6P generation. Because NADPH (excitation 340 nm, emission 450 nm) has spectral overlap with many fluorescent small molecule compounds, NADPH generation by G6PDH was coupled to NADPH-dependent reduction of resazurin to the fluorescent resorufin (excitation 525 nm, emission 590 nm) catalyzed by diaphorase ( Figure 1B ). Initial assay validation was carried out over a range (0–20 nM) of GCK and GKRP concentrations ( Figure 4A ). Additionally, seven different control mixes of NADP^+ and NADPH were tested in duplicate to generate a standard curve. The total NADP^+/NADPH concentration was 0.15 mM for all controls, with 0, 5, 10, 30, 50, 70, or 100% NADPH. This allowed estimation of the amount of NADP^+ that had been converted by the GCK reaction throughout the time-course ( Figure 4A , dashed lines). The assay is sensitive to very low levels of conversion.
The reaction rate for both 10 nM GCK alone and for 10 nM GCK with 10 nM GKRP was linear for the entire 30-minute time-course. The combination of linearity and the relatively low percent conversion of NADP^+ led us to select t = 10 minutes as providing an appropriate signal window for all future analyses. […] The IC80 value for S6P was calculated as 1.5 µM. Accordingly, this S6P concentration was utilized for all remaining diaphorase-coupled experiments.

[2] = tested on: europium-conjugated rabbit anti-mouse IgG antibody / mouse anti-FLAG XL 665 antibody; assay: IgG HTRF counter-assay; settings: no GCK or GKRP, mean ± SD
Description: as §1
(TIF) Click here for additional data file.

GCK and GKRP = tested on: GCK and GKRP; set-up: method as in PMID 14627435; settings: enhancement of the interaction of GCK and GKRP; read-out: EC50, previously reported; cited from earlier work

Structure (SMILES)	LOPAC1280 screen outcome [1]	IC50 [2]	further results
O=C(O)C1=CC(=C(c2ccc(O)c(C(=O)O)c2)c2ccc(O)c(C(=O)O)c2)C=CC1=O [ATA, aurintricarboxylic acid]	inhibitors of the GCK-GKRP interaction	90 ± 30 nM	–
O=C(COP(=O)(O)O)[C@@H](O)[C@H](O)[C@H](O)CO [F1P, fructose 1-phosphate]	–	–	EC50 ([1]; t = 10 minutes, mean ± SD): 4000 ± 500 nM
O=P(O)(O)OC[C@@H](O)[C@@H](O)[C@H](O)[C@@H](O)CO [S6P, sorbitol 6-phosphate]	–	–	IC80 [1]: 1500 nM; IC50 ([1]; t = 10 minutes, mean ± SD): 400 ± 40 nM; EC50 (GCK and GKRP): ~500 nM
Cc1ccc(C(=O)Nc2ccc(S(=O)(=O)O)c3cc(S(=O)(=O)O)cc(S(=O)(=O)O)c23)cc1NC(=O)c1cccc(NC(=O)Nc2cccc(C(=O)Nc3cc(C(=O)Nc4ccc(S(=O)(=O)O)c5cc(S(=O)(=O)O)cc(S(=O)(=O)O)c45)ccc3C)c2)c1 [suramin sodium salt]	inhibitors of the GCK-GKRP interaction	250 ± 70 nM	–
